Patent publication EP3027213B1, “COMPOSITIONS FOR AMELIORATING AND/OR PREVENTING ADVERSE SIDE EFFECTS IN ANTIBIOTIC THERAPY” (priority 2013, dated 2015)
“Also recorded” adds a separate entry of the source. Read-outs that look alike come from different tables or passages of the source.

Experiments:
[1] = tested on: human HT29 rho zero cell line; assay: Growth of rho zero cells with alternative pyruvate or uridine sources, phase contrast microscopy (Example 5, Fig. 6); assay type: cell-based; conditions: day 9
Procedure: Side effects of antibiotics can be ameliorated by administration of pyruvate and uridine. This observation can be further substantiated by applying alternative pyruvate or uridine sources, as for example alanine and uridine monophosphate (UMP). • Alternative pyruvate source: To challenge this hypothesis, cells devoid of mitochondrial DNA (rho zero cells) resembling cells that were treated with the antibiotics and have lost their mitochondrial encoded proteins, were cultured in the presence of uridine, alanine and uridine or pyruvate and uridine. […] Cells growth medium was supplemented with uridine (0.2 mM uridine) or alanine (1-10 mM alanine) and uridine (0.2 mM uridine) or pyruvate (1 mM sodium pyruvate) and uridine (0.2 mM uridine) (see figure 6a). […] Thus, pyruvate can be substituted by alternative pyruvate sources to ameliorate side effects of antibiotics. • Alternative uridine source: To challenge this hypothesis, cells devoid of mitochondrial DNA (rho zero cells) resembling cells that were treated with the antibiotics and have lost their mitochondrial encoded proteins, were cultured in the presence of UMP, alanine and UMP or pyruvate and UMP. […] Cells growth medium was supplemented with UMP (0.2 mM UMP) or alanine (1-10 mM alanine) and UMP (0.2 mM UMP) or pyruvate (1 mM sodium pyruvate) and UMP (0.2 mM UMP) (see figure 6b). […] Thus, UMP can be substituted by alternative pyrimidine source to ameliorate side effects of antibiotics.

[2] = tested on: dsRED-colorized 143B.TK^-CAP-res cells; assay: Co-culture with chloramphenicol-sensitive and -resistant cells: resistant cells (Fig. 1d); assay type: cell-based, human; conditions: co-culture on HDF monolayer with 143B.TK^- cells, uridine and pyruvate not supplied
Description: (§1) The panels display co-cultures grown on petri-dishes that contain a human dermal fibroblast (HDF) monolayer inoculated with GFP-colorized 143B.TK^- cells and dsRED-colorized 143B.TK^-CAP-res cells. The dsRED-colorized 143B.TK^-CAP-res cells contain a mitochondrial genotype that renders the cells chloramphenicol resistant.
(§2) To see whether or not the side-effect of these antibiotics reside within the mitochondria of the cell, a co-culture was established that was made of a primary fibroblast monolayer inoculated with 143B.TK^- and 143.TK^-CAP^res cells. The latter cell line is identical to the 143B.TK- cell line, except that these cells carry a CAP resistant mutation within the 16S rRNA gene located within the mitochondrial genome and are differently color coded.

[3] = tested on: GFP-colorized 143B.TK^- cells; assay type: cell-based; conditions: human
Description: as §1, §2

[4] = tested on: human dermal fibroblast (HDF) monolayer; assay type: cell-based
Description: (§3) The panels display co-cultures grown on petri-dishes that contain a human dermal fibroblast (HDF) monolayer inoculated with GFP-colorized 143B.TK- cells imaged by fluorescence microscopy and phase contrast microscopy. The HDF cells represent a resting post-mitotic tissue, while the GFP-colorized 143B.TK- cells mimic mitotic active cells. • Figure 1b, left panel: Without pyruvate and uridine, the side effect of chloramphenicol (or linezolid, or tigezycline) can be visualized on co-cultures similarly to the effect seen in figure 1. Approximately at day 4 of culture, the mitotic active colony enlarges and experiences growth retardation. […] The mitotic cells grow completely regularly. At day 8, the entire area is overgrown by the GFP-colorized 143B.TK^- cells.
as §1
(§4) To understand the influence of the antibiotic on cell cycles state, a co-culture was established that was based on a primary fibroblasts monolayer (mimicking cells at resting state) that was inoculated with 143B.TK^- cells (mimicking cells in mitotic state, dividing cells).
(§5) However, the fibroblast layer was completely unaffected and vital to start regrowth again (proven by executing scratches through the monolayer; "wound-healing" set in immediately). […] Both side-effects could be removed by co-administering uridine and/or pyruvate or derivatives thereof.

[5] = tested on: GFP-colorized 143B.TK- cells; assay type: cell-based; conditions: human, 13 days, 150 µg/ml
Description: as §3, §4, §5

143B.TK^- cells [6] = assay type: cell-based, human
Procedure: Left panel: 143B.TK^- cells containing a green colorizing gene (GFP, green color) were seeded and grown to the original density in normal growth medium (left, 1). At day 1, medium was changed to allow cell growth under pyruvate and uridine free conditions; the medium was supplemented with chloramphenicol (or linezolid, or tigezycline; see example 1). […] At day 6 (image 3), the imaged colony starts to disperse and diminishes. At day 8 (image 4), cell number further declines and cells ceased to exist (day 10). Right panel: 143B.TK^- cells containing a green colorizing gene (GFP, green color) were seeded and grown to the original density in normal growth medium (right, 1). At day 1, medium was changed to allow cell growth under controlled pyruvate and uridine supply; the medium was supplemented with chloramphenicol (or linezolid, or tigezycline; see example 1).
In order to understand the side effects of antibiotics, we incubated cultured human cells with antibiotics that are known to impede cell's metabolism. The experiments were carried out with chloramphenicol, tigezycline or linezolid under otherwise identical conditions. […] Cells were treated with chloramphenicol (150 µg/ml culture medium, 450 µM; or linezolid, or tigezycline) and medium was exchanged on a daily basis. […] After additional 4 days, cells ceased to exist (see figure 1a).

143B.TK^- cells [7] = assay: cells; assay type: cell-based; conditions: Homo sapiens, 240 h, chloramphenicol 50 nM - 300 µM, 10 days
Procedure: The half maximal inhibitory concentration (IC50) is a measure of the effectiveness of a compound in inhibiting biological or biochemical function. This quantitative measure indicates, how much of a particular drug or compound is needed to inhibit a given biological process by half. In this case, the IC50 value was determined for the side-effect of the antibiotic on human cells in the presence or absence of pyruvate and/or uridine. IC50 values were determined utilizing resazurin (Cell-Quanti-Blue Cell Viability Assay Kit, Biotrend Chemikalien GmbH, Köln), a fluorescent dye indicating vital living or dead cells. For the experiment, 24-well culture dishes were seeded with a dilution of 143B.TK^- cells (10^3 cells each). The culture medium was composed of DMEM FG0445 (containing sodium pyruvate, high-glucose, glutamine; at the discretion of the supplier) supplemented with 5% FCS and 0.5 % uridine. After an initial growth of two days, cells were washed in PBS. From here, cells were grown in DMEM F0435 (containg high-glucose, without pyruvate, without glutamine; at the discretion of the supplier) supplemented with 2 % glutamine and 5% FCS. Depending on the subsequent experiments, cell growth medium was further supplemented with: • 1. w/o chloramphenicol, w/o pyruvate, w/o uridine • 2. w chloramphenicol (50 nM - 300 µM), w/o pyruvate, w/o uridine • 3. w chloramphenicol (50 nM - 300 µM), w/o pyruvate, w uridine (50 µg/ml) • 4. w chloramphenicol (50 nM - 300 µM), w pyruvate (100 µg/ml), w/o uridine • 5. w chloramphenicol (50 nM - 300 µM), w pyruvate (100 µg/ml), w uridine (50 µg/ml)
Growth medium was changed every 12 hours. The experiment was carried out for 10 days.
Measures of sets 2-5 were normalized by measure 1. Thus, when cell vitality under chloramphenicol treatment is similar to normal cell growth (measure 1), the ratio of (measure 2, 3, 4, 5) /(measure 1) expressed in % should stay close to 1. […] When pyruvate or pyruvate + uridine were added to the growth medium, IC50 of CAP was out of range (> 300 µM).

B. subtilis DSM 347 = assay: Paper pad agar diffusion test, non-growth zone (Examples 2 and 3); assay type: cell-based; conditions: APT-plates as is or supplemented with uridine (50 µg/ml), sodium pyruvate (1 mM) or both; three concentrations; over night at 37°C
Procedure: (§6) Paper test pads (Rotiolabo, 6mm, Roth, Karlsruhe) were soaked with 7.5 µl of antibiotic-solution (concentrations used: 0.5 mM CAP; 0.77 mM CAP; 1.2 mM CAP; 0.15 mM LIN; 0.25 mM LIN; 0,4 mM LIN; 0.15 mM TIG; 0.25 mM TIG; 0.4 mM TIG) and placed on top of the agar plates (CAP- and LIN-solutions on APT/B. subtilis plates, TIG-solutions on LB/E. coli plates). Petri dishes were incubated over night at 37°C and analyzed by measuring the size of the non-growth zone of bacteria surrounding the antibiotics soaked paper pads (see figure 3a, and 3b).
(§7) Paper test pads (Rotiolabo, 6mm, Roth, Karlsruhe) were soaked with 7.5 µl of antibiotic-solution (concentrations used: 0.5 mM CAP; 0.77 mM CAP; 1.2 mM CAP; 0.15 mM LIN; 0.25 mM LIN, 0.4 mM LIN; 0.15 mM TIG, 0.25 mM TIG; 0.4 mM TIG; 0.5 mM CAP + 0.15 mM LIN; 0.77 mM CAP + 0.25 mM LIN; 1.2 mM CAP + 0.4 mM LIN; 0.5 mM CAP + 0.15 mM LIN + 0.15 mM TIG; 0.77 mM CAP + 0.25 mM LIN + 0.25 mM TIG; 1.2 mM CAP + 0.4 mM LIN + 0.4 mM TIG; 0.5 mM CAP + 0.15 mM TIG; 0.77 mM CAP + 0.25 mM TIG; 1.2 mM CAP + 0.4 mM TIG) and placed on top of the agar plates (CAP- and LIN-solutions on APT/B. subtilis plates, TIG-solutions on LB/E. coli plates). Petri dishes were incubated over night at 37°C and analyzed by measuring the size of the non-growth zone of bacteria surrounding the antibiotics soaked paper pads (see figure 2a, and 2b).

E. coli DH5α = assay: as above; assay type: cell-based; conditions: LB plates as is or supplemented with uridine (50 µg/ml), sodium pyruvate (1 mM) or both; three concentrations; over night at 37°C
Procedure: as §6, §7

[8] = 0.2 mM uridine source alone, without any pyruvate source

| Compound | cell growth [1, 8] | cell vitality of the HDF monolayer [4] | growth of the mitotic active colony [5] | cell growth (143B.TK^- cells [6]) | cell growth (143B.TK^- cells [6]; human, 150 µg/ml) | Antibiotic effect (size of the non-growth zone) (B. subtilis DSM 347) | Antibiotic effect (size of the non-growth zone) (E. coli DH5α) | further results |
| --- | --- | --- | --- | --- | --- | --- | --- | --- |
| O=c1ccn([C@@H]2O[C@H](COP(=O)(O)O)[C@@H](O)[C@H]2O)c(=O)[nH]1 [UMP, uridine monophosphate] | did not exhibit cell growth; also recorded: cell growth stalls and comes to an halt | – | – | – | – | – | – | – |
| C[C@H](N)C(=O)O [alanine] | – | – | – | – | – | – | – | cell growth ([1]; on UMP supplemented media (0.2 mM UMP), alanine 1-10 mM or sodium pyruvate 1 mM): displayed regular cell growth; also recorded: cells prosper and grow almost in the same range as normal cells; cell growth ([1]; on uridine supplemented media (0.2 mM uridine), alanine 1-10 mM or sodium pyruvate 1 mM): displayed regular cell growth; also recorded: cells prosper and grow almost in the same range as normal cells |
| O=C(N[C@H](CO)[C@H](O)c1ccc([N+](=O)[O-])cc1)C(Cl)Cl [chloramphenicol] | – | no change in cell vitality | finally ceases to exist at day 13 | growth behavior of the cells was not altered by the antibiotic | cell growth retarded and came to a halt after 6 days | not rendered by the co-administered compounds uridine and/or pyruvate; also recorded: independent of pyruvate, uridine or pyruvate + uridine supplementation | independent of pyruvate, uridine or pyruvate + uridine supplementation | cell growth [2]: exhibited no limitation in cell growth; also recorded: not influenced by the side-effect of chloramphenicol and grew regularly; cell growth ([2]; listed as CAP): not influenced by CAP; cell growth [3]: cells stopped growth after 4-5 days and ceased to exist after additional 6 days; IC50 (143B.TK^- cells [7]; w pyruvate (100 µg/ml), w uridine (50 µg/ml)): > 300 µM; IC50 (143B.TK^- cells [7]; w pyruvate (100 µg/ml), w/o uridine): > 300 µM; IC50 (143B.TK^- cells [7]; w/o pyruvate, w uridine (50 µg/ml)): 7.5 µM; IC50 (143B.TK^- cells [7]; w/o pyruvate, w/o uridine): 3.2 µM |
| CC(=O)NC[C@H]1CN(c2ccc(N3CCOCC3)c(F)c2)C(=O)O1 [linezolid] | – | no change in cell vitality | finally ceases to exist at day 13 | growth behavior of the cells was not altered by the antibiotic | cell growth retarded and came to a halt after 6 days | not rendered by the co-administered compounds uridine and/or pyruvate; also recorded: independent of pyruvate, uridine or pyruvate + uridine supplementation | – | – |
| CN(C)c1cc(NC(=O)CNC(C)(C)C)c(O)c2c1C[C@H]1C[C@H]3[C@H](N(C)C)C(O)=C(C(N)=O)C(=O)[C@@]3(O)C(O)=C1C2=O [tigezycline] | – | no change in cell vitality | finally ceases to exist at day 13 | growth behavior of the cells was not altered by the antibiotic | cell growth retarded and came to a halt after 6 days | – | not rendered by the co-administered compounds uridine and/or pyruvate; also recorded: independent of pyruvate, uridine or pyruvate + uridine supplementation | – |
| O=c1ccn([C@@H]2O[C@H](CO)[C@@H](O)[C@H]2O)c(=O)[nH]1 [uridine] | did not exhibit cell growth; also recorded: cell growth stalls and comes to an halt | – | – | – | – | – | – | – |
